Laboratory results taken from US11059795B2, “Androgen receptor modulators and methods for their use” (ESSA Pharma, Inc., priority 2018, dated 2021).

Key:
[1] = Hepatocyte stability assay, mouse hepatocytes; assay type: in vitro ADME; settings: 1 μM compound, 0.5 million cells/mL, 37° C.; for hepatocyte CLint at 1 μM: mouse, cryopreserved hepatocytes, read-out: MH +/− NADPH: Clint (μL/min/million cells)
Text: The […] of in vitro intrinsic clearance (Clint) for drug candidates in the early discovery stage is common practice in the pharmaceutical industry. The Clint values of drug candidates can help to confirm whether metabolism is the main clearance pathway when it is compared with the total body clearance in vivo. Hepatocytes are among the routinely used in vitro systems for measuring clearance. Hepatocytes have been reported to retain most of the phase I and phase II metabolic activities, and therefore, it is a useful tool to estimate the intrinsic clearance for potential drug candidates.
Metabolic stability of testing compound were be evaluated using human and mouse hepatocytes and can also be use rat, mouse, or other animal hepatocytes to predict intrinsic clearance. Cryopreserved hepatocytes were removed from the liquid nitrogen tank and thawed in a 37° C. water bath. As soon as the cells pulled away from the vial wall, they were decanted into 48 ml of warm HT medium. Cells were centrifuged for four minutes at 420 rpm (50 g). After removing the supernatant, pellet was re-suspended in warm DMEM medium. Cell density was counted by a hemacytometer.
The assay was carried out in 96-well microtiter plates. Compounds were incubated for 0, 60, 120, and 180 minutes at 37° C. with hepatocytes. Reaction mixtures (50 μL) contained a final concentration of 1 μM test compound, 0.5 million cells/mL hepatocytes in the DMEM medium. At each of the time points (for example, 0, 1, 2, and 3 hours), 200 μL of quench solution (100% acetonitrile with 0.1% formic acid) with internal standard was transferred to each well. Midazolam was included as a positive control to verify assay performance. Plates were sealed and centrifuged at 4° C. for 15 minutes at 4000 rpm. The supernatant is transferred to fresh plates for LC/MS/MS analysis.
Summarized conditions (customizable): [Compound]=[…], Positive control: midazolam and/or naloxone, [Hepatocyte]=0.5 million cells/Ml, time=0, 60, 120, and 180 min, t=37° C.
(§1) All samples were analyzed on LC/MS/MS using an AB Sciex API 4000 instrument, coupled to a Shimadzu LC-20AD LC Pump system. Analytical samples were separated using a Waters Atlantis T3 dC18 reverse phase HPLC column (20 mm×2.1 mm) at a flow rate of 0.5 mL/min. The mobile phase consisted of 0.1% formic acid in water (solvent A) and 0.1% formic acid in 100% acetonitrile (solvent B).
The extent of metabolism was calculated as the disappearance of the test compound, compared to the 0-min control reaction incubations. Initial rates were calculated for the compound concentration and used to determine t½ values and subsequently, the intrinsic clearance, Clint. Clint=(0.693)(1/t½(min))(mL incubation/million cells)

[2] = Microsomal stability assay, mouse liver microsomes; assay type: in vitro ADME; settings: 1 μM compound, 0.5 mg/mL protein, 37° C.; for microsomal CLint at 1 μM: mouse, liver microsomes, pH 7.4, mouse liver microsomes, read-out: MLM +30/− NADPH: Clint (μL/min/mg protein); for MLM +30/− NADPH: Clint (μL/min/mg protein): mouse liver microsomes
Procedure: Microsomal stability assay is a widely used in vitro model to characterize the metabolic conversion by phase I enzymes, such as cytochrome P450 (CYP) enzymes. Since metabolism is known to be highly variable in different species, microsomal stability assay is commonly run in multiple species. Metabolic stability of testing compound can be evaluated using human, rat, mouse, or other animal liver or intestine microsomes to predict intrinsic clearance.
The assay was carried out in 96-well microtiter plates at 37° C. Reaction mixtures (25 μL) contained a final concentration of 1 μM test compound, 0.5 mg/mL liver microsomes protein, and 1 mM NADPH and/or 1 mM UDPGA (with alamethicin) in 100 mM potassium phosphate, pH 7.4 buffer with 3 mM MgCl2. The incubation was done with N=1, but duplicate incubation at each time point can be prepared if necessary. At each of the time points (for example, 0, 15, 30, and 60 minutes), 150 μL of quench solution (100% acetonitrile with 0.1% formic acid) with internal standard was transferred to each well. Besides the zero minute controls, mixtures containing the same components except the NADPH can also be prepared as the negative control. Verapamil was included as a positive control to verify assay performance. Plates were sealed, vortexed, and centrifuged at 4° C. for 15 minutes at 4000 rpm. The supernatant is transferred to fresh plates for LC/MS/MS analysis.
Summarized conditions: [Compound]=[…], [LM]=0.5 mg/mL, [NADPH]=1 mM and/or [UDPGA]=1 mM, Buffer=100 mM Potassium Phosphate, pH 7.4 with 3 mM MgCl2, Time=0, 15, 30, and 60 min, and Temperature=37° C.
as §1
The extent of metabolism is calculated as the disappearance of the test compound, compared to the 0-min time incubation. Initial rates are calculated for the compound concentration and used to determine half-life (t½) values and subsequently, the intrinsic clearance (Clint). Clint=(0.693)(1/t½ (min))(g of liver/kg of body weight)(mL incubation/mg of microsomal protein)(45 mg of microsomal protein/g of liver weight)

[3] = biological target: T1, androgen receptor (AR) (Homo sapiens, UniProt P10275, T878A); experiment: Androgen-induced PSA (6.1 kb)-luciferase reporter assay in LNCaP cells; assay type: cell-based; settings: LNCaP cells transfected with PSA (6.1 kb)-luciferase reporter, R1881 1 nM, 24 h; read-out: PSA-Luc IC50 Range
T1 construct: LNCaP cells were transiently transfected with the PSA (6.1 kb)-luciferase reporter for 24 h; endogenous in cells; host or cells: LNCaP
T1 sequence (P10275 1-920 T878A): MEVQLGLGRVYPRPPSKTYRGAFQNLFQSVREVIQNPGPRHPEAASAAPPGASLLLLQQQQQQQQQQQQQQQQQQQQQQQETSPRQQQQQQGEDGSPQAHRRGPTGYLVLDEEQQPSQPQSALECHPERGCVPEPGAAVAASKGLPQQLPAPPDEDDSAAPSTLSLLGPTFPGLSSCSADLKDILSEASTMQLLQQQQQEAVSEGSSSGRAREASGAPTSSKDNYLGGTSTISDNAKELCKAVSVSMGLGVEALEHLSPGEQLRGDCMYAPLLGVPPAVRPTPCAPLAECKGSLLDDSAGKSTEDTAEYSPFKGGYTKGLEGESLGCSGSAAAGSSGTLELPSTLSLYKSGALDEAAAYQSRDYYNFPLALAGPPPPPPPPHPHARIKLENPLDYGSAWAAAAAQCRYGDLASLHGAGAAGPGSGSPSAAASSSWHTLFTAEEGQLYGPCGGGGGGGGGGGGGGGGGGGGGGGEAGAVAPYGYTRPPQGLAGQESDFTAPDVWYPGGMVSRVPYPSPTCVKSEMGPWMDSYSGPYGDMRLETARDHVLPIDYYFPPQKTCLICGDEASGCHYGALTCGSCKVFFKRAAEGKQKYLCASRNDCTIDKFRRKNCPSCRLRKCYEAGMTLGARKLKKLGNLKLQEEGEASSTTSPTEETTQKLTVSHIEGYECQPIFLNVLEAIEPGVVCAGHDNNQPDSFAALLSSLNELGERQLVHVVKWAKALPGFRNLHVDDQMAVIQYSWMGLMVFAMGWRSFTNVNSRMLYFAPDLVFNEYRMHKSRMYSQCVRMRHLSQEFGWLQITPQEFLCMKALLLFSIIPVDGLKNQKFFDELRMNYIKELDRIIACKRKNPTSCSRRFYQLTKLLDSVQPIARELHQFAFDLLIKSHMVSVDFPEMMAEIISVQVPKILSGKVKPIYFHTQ
How it was run: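 LNCaP cells carrying a PSA (6.1 kb) promoter-luciferase reporter with AREs; androgen-induced firefly luciferase read from lysates for 10 s. RLU normalized to protein content; IC50 calculated from the normalized data.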

[4] = Microsomal stability assay, human liver microsomes; assay type: in vitro ADME; settings: 0.5 mg/mL protein, 37° C.; for microsomal CLint at 1 μM: pH 7.4, 1 μM compound, read-out: HLM +/− NADPH: Clint (μL/min/mg protein)
How it was run: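 Compound at 1 μM was incubated at 37° C with 0.5 mg/mL liver microsomes and 1 mM NADPH and/or 1 mM UDPGA (with alamethicin) in 100 mM potassium phosphate pH 7.4, 3 mM MgCl2. Samples were taken at 0, 15, 30 and 60 min and measured by LC/MS/MS. t½ came from compound loss relative to 0 min, and Clint was scaled with 45 mg microsomal protein/g liver.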

Structure (SMILES) | hepatocyte CLint at 1 μM [1] [µL/min/1e6 cells] | microsomal CLint at 1 μM [2] [µL/min/mg] | IC50 [3] [nM] | microsomal CLint at 1 μM [4] [µL/min/mg] | MH +/− NADPH: Clint (μL/min/million cells) [1] | MLM +30/− NADPH: Clint (μL/min/mg protein) [2] | HLM +/− NADPH: Clint (μL/min/mg protein) ([4]; 1 μM compound)
CC(C)(c1ccc(OCc2ncc(S(C)(=O)=O)[nH]2)cc1)c1cc(Cl)c(OCCCl)c(C#N)c1 [Compound A94] | 4 to 18 | 12 to 48 | 500 to 2000 | 12 to 48 | – | – | –
CC(Oc1ccc(C(C)(O)c2cc(Cl)c(OCCCl)c(C#N)c2)cc1)c1ocnc1S(C)(=O)=O (centres unmarked) [Compound A95] | ≥ 18 | ≥ 48 | > 2000 | 12 to 48 | – | – | –
CC(C)(c1ccc(NC(=O)c2coc(S(C)(=O)=O)n2)cc1)c1cc(Cl)c(OCCCl)c(C#N)c1 [Compound A96] | ≥ 18 | ≥ 48 | > 2000 | ≥ 48 | – | – | –
CC(Oc1ccc(C(C)(C)c2cc(Cl)c(OCCCl)c(C#N)c2)cc1)c1ccnc(NS(C)(=O)=O)n1 (centres unmarked) [Compound A98] | < 4 | < 12 | 500 to 2000 | < 12 | – | – | –
Cc1nc(COc2ccc(C(C)(C)c3cc(Cl)c(OCCCl)c(C#N)c3)cc2)cc(NS(C)(=O)=O)n1 [Compound A99] | 4 to 18 | 12 to 48 | 500 to 2000 | < 12 | – | – | –
CC(C)(c1ccc(OCc2nnccc2NS(C)(=O)=O)cc1)c1cc(Cl)c(OCCCl)c(C#N)c1 [Compound A101] | 4 to 18 | 12 to 48 | 500 to 2000 | ≥ 48 | – | – | –
CC(N)(c1ccc(OCc2ocnc2S(C)(=O)=O)cc1)c1cc(Cl)c(OCCCl)c(C#N)c1 (centres unmarked) [Compound A105] | ≥ 18 | ≥ 48 | > 2000 | 12 to 48 | – | – | –
C[C@](O)(c1ccc(OCc2ocnc2S(C)(=O)=O)cc1)c1cc(Cl)c(OCCCl)c(C#N)c1 [Compound A108] | ≥ 18 | ≥ 48 | 500 to 2000 | < 12 | – | – | –
COc1ncc(COc2ccc(C(C)(C)c3cc(Cl)c(OCCCl)c(C#N)c3)cc2)o1 [Compound A112, 3-chloro-2-(2-chloroethoxy)-5-(2-(4-((2-methoxyoxazol-5-yl)methoxy)phenyl)propan-2-yl)benzonitrile] | 4 to 18 | 12 to 48 | < 500 | < 12 | – | – | –
CC(C)(c1ccc(OCc2cnc(C#N)o2)cc1)c1cc(Cl)c(OCCCl)c(C#N)c1 [Compound A113] | ≥ 18 | 12 to 48 | > 2000 | 12 to 48 | – | – | –
CC(C)(c1ccc(OCc2cnc(C(N)=O)o2)cc1)c1cc(Cl)c(CCCCl)c(C#N)c1 [Compound A114] | ≥ 18 | 12 to 48 | 500 to 2000 | < 12 | – | – | –

Continued, in another order:

hepatocyte CLint at 1 μM [1] [µL/min/1e6 cells] | microsomal CLint at 1 μM [2] [µL/min/mg] | IC50 [3] [nM] | microsomal CLint at 1 μM [4] [µL/min/mg] | Structure (SMILES) | MH +/− NADPH: Clint (μL/min/million cells) [1] | MLM +30/− NADPH: Clint (μL/min/mg protein) [2] | HLM +/− NADPH: Clint (μL/min/mg protein) ([4]; 1 μM compound)
≥ 18 | 12 to 48 | < 500 | 12 to 48 | CC(C)(c1ccc(OCc2ocnc2S(C)(=O)=O)cc1)c1cc(Cl)c(OCC(Cl)CO)c(Cl)c1 (centres unmarked) [Compound A97] | – | – | –
≥ 18 | ≥ 48 | < 500 | ≥ 48 | CC(=O)Nc1nccc(COc2ccc(C(C)(C)c3cc(C)c(OCCCl)c(C#N)c3)cc2)n1 [Compound A100] | – | – | –
< 4 | < 12 | < 500 | 12 to 48 | CC(C)(c1ccc(OCc2ccnnc2NS(C)(=O)=O)cc1)c1cc(Cl)c(OCCCl)c(C#N)c1 [Compound A102] | – | – | –
– | – | < 500 | 12 to 48 | CC(C)(c1ccc(OCc2nccnc2NS(C)(=O)=O)cc1)c1cc(Cl)c(OCCCl)c(C#N)c1 [Compound A103] | *** (*** represent Cl < 4 cells μL/min/million cells) | ** (** represents Cl in the range of 12-48 μL/min/mg protein) | –
– | – | < 500 | – | CC(C)(c1ccc(OCc2nccnc2NS(C)(=O)=O)cc1)c1cc(Cl)c(OCCCl)c(C#N)c1 [Compound A104] | * (* represents Cl in the range of ≥18 μL/min/million cells) | * (* represents Cl in the range of ≥48 μL/min/mg protein) | ** (** represents Cl in the range of 12-48 μL/min/mg protein)
4 to 18 | 12 to 48 | < 500 | 12 to 48 | CSc1ncc(COc2ccc(C(C)(C)c3cc(Cl)c(OCCCl)c(Cl)c3)cc2)o1 [Compound A111] | – | – | –
